This note sets out measurements from ChEMBL document CHEMBL4152312, “Identification of fused pyrimidines as interleukin 17 secretion inhibitors” (Eur J Med Chem, 2018).

pIC50: −log10 of the molar value.

Assay [1] concerns PBMC. Briefly: Inhibition of IL-17 secretion in anti-human CD3 antibody/anti-human CD28 antibody/IL23-stimulated human PBMC after 48 hrs by ELISA. It is filed as functional, cell-based. A general note: An ELISA detects its analyte on a solid surface through an enzyme-linked reagent.
Assay [2] has as its system PBMC. The experiment in a line: Cytotoxicity against human PBMC assessed as induction of cell death by cell Titer-Glo assay. It is filed as cell-based. Background: ATP-based viability assays read luminescence as a measure of living cells.
The test system of assay [3] is PBMC. The experiment in a line: Inhibition of IL-5 secretion in anti-human CD3 antibody/anti-human CD28 antibody/IL23-stimulated human PBMC after 48 hrs by ELISA. It is filed as functional, cell-based.

`CN(C)CCn1cc(-c2ccc(CO)cc2)c2c(N[C@H](CO)c3ccccc3)ncnc21` showed a pIC50 in assay [1] of under 5.00.

For `CS(=O)(=O)CCNCc1ccc(-c2ccc3ncnc(Nc4ccc(OCc5cccc(F)c5)c(Cl)c4)c3c2)o1` [LAPATINIB], in assay [2], the pIC50 is 4.55.

In the case of `C[C@@H](Nc1ncnc2[nH]cc(-c3ccc(F)c(CO)c3)c12)c1ccccc1`, the pIC50 in assay [1] was 5.51; in assay [2], under 5.00.

On to `CN(C)CCn1cc(-c2ccc(O)cc2)c2c(N[C@H](CO)c3ccccc3)ncnc21`, for which the pIC50 in assay [1] was under 5.00.

Turning to `CC(CO)Nc1ncnc2c1c(-c1cccc(O)c1)cn2CCN(C)C` (single isomer, unassigned), the pIC50 in assay [1] was under 5.00.

For the compound `CC(Nc1ncnc2[nH]c(-c3ccc(CO)cc3)cc12)C12CC3CC(CC(C3)C1)C2` (centres undefined), the pIC50 was 5.30 in assay [1] and under 5.00 in assay [2].

The compound `C[C@@H](Nc1ncnc2sc(-c3ccccc3)cc12)c1ccccc1` showed a pIC50 in assay [1] of under 5.00.

Consider `Cc1cc(C)c(-c2cc3c(N[C@H](C)c4ccccc4)ncnc3s2)c(C)c1`, for which, in assay [1], the pIC50 was under 5.00.

In turn, `Fc1ccc(Nc2ncnc3sc(-c4ccc(Br)cc4)cc23)cc1Cl` showed a negative logarithm of the IC50 (pIC50) in assay [1] of under 5.00.

In turn, `C=Cc1ccc(-c2cc3c(N[C@H](C)c4ccccc4)ncnc3s2)cc1` showed a pIC50 in assay [1] of under 5.00.

As for `Fc1ccc(-c2cc3c(Nc4cccc(OCc5ccccc5)c4)ncnc3s2)cc1`, the pIC50 in assay [1] is under 5.00.

Turning to `COc1cc(CO)ccc1-c1cc2c(N[C@H](CO)c3ccccc3)ncnc2s1`, the results for the negative logarithm of the IC50 (pIC50) in assay [1], in assay [3] and in assay [2] were 5.34, 4.85 and under 4.52, respectively.

Take `COc1ccc(-c2cc3c(N[C@H](CCO)c4ccccc4)ncnc3s2)cc1`: the pIC50 in assay [1] was under 5.00.

In the case of `CC(C)c1cc(C(C)C)c(-c2cc3c(N[C@H](C)c4ccccc4)ncnc3s2)c(C(C)C)c1`, in assay [1], the pIC50 is under 5.00.

Take `Oc1cccc(-c2cc3c(OC(c4ccccc4)C(F)(F)F)ncnc3s2)c1` (centres undefined): in assay [1], the pIC50 is under 5.00.

As to `COc1cc(CO)ccc1-c1cc2c(N[C@H](CO)c3ccccc3)ncnc2[nH]1`, the values for the pIC50 in assay [1], in assay [3] and in assay [2] were 5.49 to 5.51, 5.46 to 5.64 and under 4.52, respectively.

With `Cn1cc(-c2cccc(O)c2)c2c(N[C@H](CO)c3ccccc3)ncnc21`, the pIC50 is 5.55 in assay [1] and under 5.00 in assay [2].

As to `COc1cc(CO)ccc1-c1cc2c(Nc3ccc(OCc4cccc(F)c4)c(Cl)c3)ncnc2s1`, the values for the pIC50 in assay [1], in assay [3] and in assay [2] were 5.05, under 4.52 and 4.55, respectively.

`COc1ccc(-c2cc3c(N[C@@H](C)CO)ncnc3s2)cc1` gave a pIC50 in assay [1] of under 5.00.

In assay [1], `Fc1ccc(-c2cc3c(Nc4cccc(OCc5ccccc5)c4)ncnc3[nH]2)cc1` showed a pIC50 of under 5.00.

Regarding `C[C@@H](Nc1ncnc2[nH]cc(-c3ccc(F)c(CNCCN(C)C)c3)c12)c1ccccc1`, the pIC50 is 5.30 in assay [1] and under 5.00 in assay [2].

As for `CN(C)CCn1cc(-c2ccc(F)c(CO)c2)c2c(N[C@H](CO)c3ccccc3)ncnc21`, the pIC50 in assay [1] was under 5.00.

Take `COc1cccc(OC)c1-c1cc2c(N[C@H](CO)c3ccccc3)ncnc2s1`: the pIC50 in assay [1] was 5.15; in assay [2] it was under 4.52.

`Oc1cccc(-c2c[nH]c3ncnc(Nc4ccc(OCc5cccc(F)c5)c(Cl)c4)c23)c1` had a negative logarithm of the IC50 (pIC50) in assay [1] of under 5.00.

Turning to `NC(=O)CC(Nc1ncnc2sc(-c3ccc(CO)cc3)cc12)c1ccccc1` (centres undefined), the pIC50 in assay [1] was 5.48; in assay [2], under 5.00.

For `COc1cccc(-c2cc3c(N[C@H](C)c4ccccc4)ncnc3s2)c1OC`, the pIC50 in assay [1] was under 5.00.

In assay [1], `COc1ccc(-c2cc3c(N[C@H](C)C4CCCCC4)ncnc3s2)cc1` gave a pIC50 of under 5.00.

As to `OCc1ccc(-c2cc3c(Nc4cccc(OCc5ccccc5)c4)ncnc3[nH]2)cc1`, the figures for the pIC50 in assay [1] and in assay [2] were 5.66 and under 5.00, respectively.

In assay [1], `COc1ccccc1-c1cc2c(N[C@H](C)c3ccccn3)ncnc2s1` had a pIC50 of under 5.00.

Turning to `Oc1ccccc1-c1cc2c(OC(c3ccccc3)C(F)(F)F)ncnc2s1` (centres undefined), the pIC50 in assay [1] was under 5.00.

Take `OCc1ccc(-c2cc3c(Nc4cccc(OCc5ccccc5)c4)ncnc3s2)cc1`: the pIC50 in assay [1] is under 5.00.

Regarding `COc1cc(CO)ccc1-c1cc2c(N[C@H](CO)c3ccc(F)cc3)ncnc2[nH]1`, the pIC50 was 5.51 in assay [1] and under 5.00 in assay [2].

As to `Oc1ccc(-c2cc3c(OC(c4ccccc4)C(F)(F)F)ncnc3s2)cc1` (centres undefined), the pIC50 in assay [1] was under 5.00.

Consider `COc1ccc(-c2cc3c(NC(CC(N)=O)c4ccccc4)ncnc3s2)cc1` (centres undefined), for which the pIC50 in assay [1] is 5.40; in assay [3], 5.10 to 5.12; in assay [2], under 4.52.

For the compound `CN(C)CCn1cc(-c2cccc(O)c2)c2c(N[C@H](CO)c3ccccc3)ncnc21`, in assay [1], the pIC50 is under 5.00.

In the case of `COc1cccc(OC)c1-c1cc2c(N[C@H](C)c3ccccc3)ncnc2[nH]1`, the pIC50 is 5.38 in assay [1], 5.60 in assay [3] and under 5.00 in assay [2].

Consider `COc1cc(F)ccc1-c1cc2c(N[C@H](CO)c3ccccc3)ncnc2[nH]1`, for which the pIC50 is 5.37 to 5.39 in assay [1], 5.96 in assay [3] and under 5.00 in assay [2].

`COc1ccc(-c2cc3c(N[C@H](CO)c4ccccc4)ncnc3s2)cc1` had a pIC50 in assay [1] of under 5.00.

Consider `OCc1ccc(-c2cc3c(Nc4ccc(OCc5cccc(F)c5)c(Cl)c4)ncnc3[nH]2)cc1`, for which the pIC50 in assay [1] is under 5.00.

The pIC50 is −log10 of the IC50, conventionally taken in molar units.
